Assay results reported in ChEMBL document CHEMBL1129766, “SAR of 2-benzyl-4-aminopiperidines: CGP 49823, an orally and centrally active non-peptide NK1 antagonist” (Bioorg Med Chem Lett, 1996).
Active and inactive are the calls of the source. No cut-off for these calls is given here.

Columns and labels:
U373 MG = assay: Compound was tested for inhibition of substance P induced phosphatidyl inositol turnover in human U-373 cells; assay type: functional, cell-based, U-373MG ATCC
Gerbillinae [1] = assay: (§1) Tested for inhibition of thumping behavior in gerbils induced by iv administration of SP-methyl ester 2 hours after peroral administration of 30 mg/kg of the compound; assay type: functional, organism-based; design: dose 30 mg/kg, route oral
[2] = target: T1, Substance-K receptor (Bos taurus) (UniProt P05363); assay: (§2) Compound was tested for inhibition of [125I]NKA radioligand binding to NK2 receptor from bovine bladder; settings: concentration not given here
T1 sequence (whole entry): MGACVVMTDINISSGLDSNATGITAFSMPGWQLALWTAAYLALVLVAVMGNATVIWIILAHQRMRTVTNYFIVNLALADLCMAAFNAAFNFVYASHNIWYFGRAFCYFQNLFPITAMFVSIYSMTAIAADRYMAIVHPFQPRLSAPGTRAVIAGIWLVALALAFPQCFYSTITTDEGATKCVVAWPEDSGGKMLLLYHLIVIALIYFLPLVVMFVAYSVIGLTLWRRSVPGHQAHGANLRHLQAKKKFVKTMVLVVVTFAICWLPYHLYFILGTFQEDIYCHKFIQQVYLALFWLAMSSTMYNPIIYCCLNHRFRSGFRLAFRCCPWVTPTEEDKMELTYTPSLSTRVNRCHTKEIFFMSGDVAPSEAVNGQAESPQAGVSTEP

Gerbillinae [3] = assay: as §1; assay type: functional; settings: route oral
[4] = target: T1, Substance-K receptor (Bos taurus); assay: Compound was tested for inhibition of [125I]NKA radioligand binding to NK2 receptor from bovine bladder at 1 uM
Neuromedin-K receptor = target: T2, Neuromedin-K receptor (Homo sapiens, UniProt P29371); assay: Compound was tested for inhibition of [125I]eledoisin radioligand binding to NK3 receptor from gerbil cortex; NA means no activity; design: species or system Gerbillinae
T2 sequence (P29371 whole entry): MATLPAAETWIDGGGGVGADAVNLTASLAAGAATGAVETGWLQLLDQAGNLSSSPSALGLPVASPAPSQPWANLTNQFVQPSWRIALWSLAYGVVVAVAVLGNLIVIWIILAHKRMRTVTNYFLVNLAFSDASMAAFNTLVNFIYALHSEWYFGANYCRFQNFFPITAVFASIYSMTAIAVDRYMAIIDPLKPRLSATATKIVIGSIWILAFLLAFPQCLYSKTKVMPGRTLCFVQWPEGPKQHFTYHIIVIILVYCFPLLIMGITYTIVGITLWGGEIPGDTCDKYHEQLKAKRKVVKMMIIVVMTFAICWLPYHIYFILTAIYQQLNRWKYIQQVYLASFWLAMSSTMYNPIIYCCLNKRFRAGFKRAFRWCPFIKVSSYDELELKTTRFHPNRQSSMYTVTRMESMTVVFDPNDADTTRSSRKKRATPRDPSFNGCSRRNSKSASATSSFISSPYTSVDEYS

Gerbillinae [5] = assay: Compound was tested for inhibition of thumping behavior in gerbils induced by iv administration of SP-methyl ester 2 hours after peroral administration of 30 mg/kg of the compound.; assay type: functional; settings: route oral
Gerbillinae [6] = assay: Tested for inhibition of thumping behavior in gerbils induced by iv administration of SP-methyl ester 2 hours after intraperitoneal administration of 60 mg/kg of the compound; assay type: functional
[7] = target: T3, Neuromedin-K receptor (Homo sapiens) (UniProt P29371); settings: Gerbillinae
T3 sequence (whole entry): T2 sequence (P29371 whole entry)

Substance-K receptor = target: T4, Substance-K receptor (Bos taurus, UniProt P05363); assay: as §2
T4 sequence (P05363 whole entry): T1 sequence (whole entry)

## Cc1cc(C)cc(C(=O)N2CC[C@H](NCc3cnc4ccccc4c3)C[C@H]2Cc2ccccc2)c1
U373 MG
  IC50: 0.21 µM
Gerbillinae [1]
  inhibition: 21%
[2]
  inhibition: 22%

## COc1ccccc1CN[C@H]1C2CCN(CC2)[C@H]1C(c1ccccc1)c1ccccc1 [CP-96345]
Gerbillinae [3]
  inhibition in vivo at 30 mg/kg: 61%
U373 MG
  IC50: 0.009 µM
[4]
  inhibition: 24%
Neuromedin-K receptor
  IC50: Not Active

## O=C(N[C@H]1CCN(C(=O)c2cc(C(F)(F)F)cc(C(F)(F)F)c2)[C@H](Cc2ccccc2)C1)c1cc(O)nc2ccccc12
Gerbillinae [5]
  inhibition in vivo at 30 mg/kg: 24%
[2]
  inhibition: 28%

## Cc1cc(C)cc(C(=O)N2CC[C@@H](NCc3ccnc4ccccc34)C[C@H]2Cc2ccccc2)c1
Gerbillinae [6]
  inhibition in vivo at 60 mg/kg: 20%

## Cc1cc(C)cc(C(=O)N2CC[C@@H](NCc3ccnc4ccccc34)C[C@@H]2Cc2ccccc2)c1
Gerbillinae [3]
  inhibition in vivo at 30 mg/kg: 54%
U373 MG
  IC50: 0.15 µM
[4]
  inhibition: 5%
[7]
  NA: inactive

## Cc1cc(C)cc(C(=O)N2CC[C@H](NCc3ccnc4ccccc34)C[C@H]2Cc2ccccc2)c1
Gerbillinae [3]
  inhibition in vivo at 30 mg/kg: 34%
Substance-K receptor
  IC50: 2.79 µM
U373 MG
  IC50: 0.012 µM

## O=C(N[C@H]1CCN(C(=O)c2cc(Cl)cc(Cl)c2)[C@H](Cc2ccccc2)C1)c1ccnc2ccccc12
Gerbillinae [5]
  inhibition in vivo at 30 mg/kg: 66%
Substance-K receptor
  IC50: 4.5 µM
U373 MG
  IC50: 0.024 µM
